Active and inactive are the calls of the source. The rule behind the calls is not given here.
Tests used:
SK-OV-3 [1] = assay: Induction of cell cycle arrest in human SK-OV-3 cells assessed as increase in G2/M phase cells at 2.5 nM incubated for 24 hrs PI staining based flow cytometric analysis (reference value: 24.6 +/- 2.0%); format: functional
MCF7 [2] = assay: Inhibition of cell migration in human MCF7 cells assessed as area of migrated cells at 50 nM incubated for 24 hrs by crystal violet staining based inverted microscopic analysis (reference value: 18.5 +/- 0.3 mm^3); format: functional
A549 = assay: Antitumor activity against human A549 cells assessed as reduction in cell viability incubated for 72 hrs by CCK8 assay; format: functional, cell-based; details: A549, 72 h
SK-OV-3 [3] = assay: Induction of cell cycle arrest in human SK-OV-3 cells assessed as increase in G2/M phase cells at 40 nM incubated for 24 hrs by PI staining based flow cytometric analysis (reference value: 24.6 +/- 2.0%); format: functional
SK-OV-3 [4] = assay: Inhibition of cell migration in human SK-OV-3 cells assessed as reduction in wound closure at 12.5 nM incubated for 24 hrs by wound healing assay (reference value: 21.8 +/- 7.6%); format: functional; details: SK-OV-3, 24 h, values are per cent of control
MCF7 [5] = assay: Inhibition of colony formation in human MCF7 cells at 50 nM incubated for 72 hrs by crystal violet staining based assay relative to control; format: functional
SK-OV-3 [6] = assay: Induction of apoptosis in human SK-OV-3 cells assessed as upregulation of cleaved-PARP expression at 25 to 50 nM incubated for 24 hrs by Western blotting analysis; format: functional, cell-based; details: dose 25-50 nM
MCF7 [7] = assay: Inhibition of cell migration in human MCF7 cells assessed as ratio of migrated cells at 12.5 nM incubated for 24 hrs by crystal violet staining based inverted microscopic analysis (reference value: 100%); format: functional; design: scale not given: the % may be the effect or the level left
MCF7 [8] = assay: Inhibition of cell migration in human MCF7 cells assessed as ratio of migrated cells at 3.125 nM incubated for 24 hrs by crystal violet staining based inverted microscopic analysis (reference value: 100%); format: functional; design: scale not given: the % may be the effect or the level left
MCF7 [9] = assay: Inhibition of colony formation in human MCF7 cells at 3.125 to 50 nM by crystal violet staining based assay; format: functional, cell-based; details: dose 3.125-50 nM, time 0-72 hrs
MCF7 [10] = assay: Induction of apoptosis in human MCF7 cells assessed as upregulation of Bcl-2 expression at 100 nM incubated for 24 hrs by Western blotting analysis; format: functional, cell-based
SK-OV-3 [11] = assay: Induction of apoptosis in human SK-OV-3 cells assessed as upregulation of Bcl-2 expression at 100 nM incubated for 24 hrs by Western blotting analysis; format: functional, cell-based
SK-OV-3 [12] = assay: Inhibition of cell migration in human SK-OV-3 cells assessed as wound closure ratio at 3.125 nM incubated for 24 hrs by wound healing assay (reference value: 100%); format: functional; design: scale not given: the % may be the effect or the level left
SK-OV-3 [13] = assay: Inhibition of cell migration in human SK-OV-3 cells assessed as area of migrated cells at 1.25 nM incubated for 24 hrs by crystal violet staining based inverted microscopic analysis (reference value: 30.1 +/- 1.3 mm^3); format: functional
MCF7 [14] = assay: Induction of apoptosis in human MCF7 cells assessed as downregulation of Bax expression at 25 to 50 nM incubated for 24 hrs by Western blotting analysis; format: functional, cell-based; details: dose 25-50 nM
SK-OV-3 [15] = assay: Antitumor activity against human SK-OV-3 cells xenografted in female BALB/c nude mouse assessed as tumor growth inhibition at 5 mg/kg, […] via tail vein once every 2 to 3 days; format: functional; details: time 2-3 day, read-out: TGI
SK-OV-3 [16] = assay: Antitumor activity against human SK-OV-3 cells xenografted xenografted in female BALB/c nude mouse assessed as decrease in Ki-67 expression level in tumor at 10 mg/kg, […] via tail vein once every 2 to 3 days by immunohistochemistry analysis; format: functional, organism-based; details: time 2-3 day
MCF7 [17] = assay: Induction of apoptosis in human MCF7 cells assessed as increase in apoptotic cells at 6.25 to 100 nM incubated for 24 hrs by IncuCyte live-cell imaging analysis; format: functional, cell-based; details: dose 6.25-100 nM
SK-OV-3 [18] = assay: Inhibition of cell migration in human SK-OV-3 cells incubated for 24 hrs by Transwell assay; format: functional, cell-based; details: dose 10-20 nM
SK-OV-3 [19] = assay: Inhibition of cell migration in human SK-OV-3 cells assessed as wound closure ratio at 50 nM incubated for 24 hrs by wound healing assay (reference value: 100%); format: functional; design: scale not given: the % may be the effect or the level left
MCF7 [20] = assay: Inhibition of cell migration in human MCF7 cells assessed as wound closure at 20 nM incubated for 24 hrs by wound healing assay (reference value: 44.5 +/- 8.8%); format: functional; design: scale not given: the % may be the effect or the level left
MCF7 [21] = assay: Induction of apoptosis in human MCF7 cells assessed as upregulation of cleaved-caspase-3 expression incubated for 24 hrs by Western blotting analysis; format: functional, cell-based
SK-OV-3 [22] = assay: Inhibition of cell migration in human SK-OV-3 cells assessed as decrease in cell density at 25 to 50 nM incubated for 24 hrs by wound healing assay; format: functional, cell-based; details: dose 25-50 nM
SK-OV-3 [23] = assay: Inhibition of cell migration in human SK-OV-3 cells assessed as reduction in wound closure at 25 nM incubated for 24 hrs by wound healing assay (reference value: 21.8 +/- 7.6%); format: functional; details: SK-OV-3, 24 h, values are per cent of control
SK-OV-3 [24] = assay: Inhibition of cell migration in human SK-OV-3 cells assessed as ratio of migrated cells at 1.25 nM incubated for 24 hrs by Transwell assay (reference value: 100 %); format: functional; design: scale not given: the % may be the effect or the level left
SK-OV-3 [25] = assay: Induction of apoptosis in human SK-OV-3 cells assessed as downregulation of Bcl-2 expression incubated for 24 hrs by Western blotting analysis; format: functional, cell-based
Tubulin (Homo sapiens) = Tubulin (Homo sapiens) (UniProt P68371+Q9H4B7+P0DPH7+P68366+Q13509+Q71U36+P04350+Q3ZCM7+P07437+P68363+Q9BQE3+Q6PEY2+Q13885+Q9BVA1+Q9BUF5); assay: Inhibition of tubulin polymerization (unknown origin) assessed as reduction in optical density at 340 nm; format: protein-complex assay; details: dose 5-20 µM
SK-OV-3 [26] = assay: Induction of cell cycle arrest in human SK-OV-3 cells assessed as increase in G2/M phase cells incubated for 24 hrs PI staining based flow cytometric analysis; format: functional; details: dose 2.5-40 nM
[27] = Toxicity in female BALB/c nude mouse xenografted with human SK-OV-3 cells assessed as drug tolerance by measuring reduction in water intake at 30 mg/kg, administered via tail vein for 5 days and measured daily; format: organism-based; details: in vivo, iv, 120 h, time 5 day
MCF7 [28] = assay: Inhibition of cell migration in human MCF7 cells assessed as wound closure ratio at 1.25 nM incubated for 24 hrs by wound healing assay (reference value: 100%); format: functional; design: scale not given: the % may be the effect or the level left
SK-OV-3 [29] = assay: Inhibition of colony formation in human SK-OV-3 cells incubated for 12 days by crystal violet staining based assay; format: functional, cell-based; details: dose 1.25-20 nM, time 12.0 day
MCF7 [30] = assay: Inhibition of colony formation in human MCF7 cells incubated for 72 hrs by crystal violet staining based assay; format: functional, cell-based; details: dose 3.125-50 nM
MCF7 [31] = assay: Inhibition of cell migration in human MCF7 cells assessed as wound closure ratio at 10 nM incubated for 24 hrs by wound healing assay (reference value: 100%); format: functional; design: scale not given: the % may be the effect or the level left
SK-OV-3 [32] = assay: Inhibition of cell migration in human SK-OV-3 cells assessed as decrease in cell density incubated for 24 hrs by wound healing assay; format: functional, cell-based; details: dose 3.125-50 nM
[33] = Toxicity in female BALB/c nude mouse xenografted with human SK-OV-3 cells assessed as drug tolerance by measuring body weight loss at 15 mg/kg, administered via tail vein for 5 days and measured daily; format: organism-based; details: in vivo, iv, 120 h, time 5 day

## CNc1nc(N2CCCc3cc(OC)ccc32)c2cc(F)ccc2n1
SK-OV-3 [1]
  Activity: 25.3%
MCF7 [2]
  Activity: 2.2 mm3
A549
  IC50: 2.7 nM
SK-OV-3 [3]
  Activity: 94.5%
SK-OV-3 [4]
  response, % of control at 0.0125 µM: 14.3%
MCF7 [5]
  inhibition at 0.05 µM: 42.2%
SK-OV-3 [6]
  Activity: Active
MCF7 [7]
  Activity: 60.4%
MCF7 [8]
  Activity: 94.5%
MCF7 [9]
  inhibition: Time-dependent-effect
MCF7 [10]
  Activity: inactive
SK-OV-3 [11]
  Activity: inactive
SK-OV-3 [12]
  Activity: 104.5%
SK-OV-3 [13]
  Activity: 21.7 mm3
MCF7 [14]
  Activity: inactive
SK-OV-3 [15]
  inhibition in vivo at 5 mg/kg: 34.1%
SK-OV-3 [16]
  Activity: Active
MCF7 [17]
  Activity: Active
SK-OV-3 [18]
  inhibition: Dose-dependent-effect
SK-OV-3 [19]
  Activity: 22.7%
MCF7 [20]
  Activity: 32.2%
MCF7 [21]
  Activity: Dose-dependent-effect
SK-OV-3 [22]
  inhibition: Active
SK-OV-3 [23]
  response, % of control at 0.025 µM: 11.2%
SK-OV-3 [24]
  Activity: 72.3%
SK-OV-3 [25]
  Activity: Active
Tubulin (Homo sapiens)
  inhibition: Dose-dependent-effect
SK-OV-3 [26]
  Activity: Dose-dependent-effect
[27]
  Activity: Toxic
MCF7 [28]
  Activity: 105.5%
SK-OV-3 [29]
  inhibition: Dose-dependent-effect
MCF7 [30]
  inhibition: Dose-dependent-effect
MCF7 [31]
  Activity: 104.4%
SK-OV-3 [32]
  inhibition: Dose-dependent-effect
[33]
  Activity: Toxic

— ChEMBL document CHEMBL6074686 (Eur J Med Chem, 2025)
